This passage reports Ki and inhibition results from patent US20050009840A1 (SUGEN, INC., priority 2003, published 2005).

The first experiment deals with T1, HGFR (Homo sapiens, UniProt P08581).
T1 construct: purchased Upstate 14-526
T1 sequence (P08581 974-1390 limits assumed): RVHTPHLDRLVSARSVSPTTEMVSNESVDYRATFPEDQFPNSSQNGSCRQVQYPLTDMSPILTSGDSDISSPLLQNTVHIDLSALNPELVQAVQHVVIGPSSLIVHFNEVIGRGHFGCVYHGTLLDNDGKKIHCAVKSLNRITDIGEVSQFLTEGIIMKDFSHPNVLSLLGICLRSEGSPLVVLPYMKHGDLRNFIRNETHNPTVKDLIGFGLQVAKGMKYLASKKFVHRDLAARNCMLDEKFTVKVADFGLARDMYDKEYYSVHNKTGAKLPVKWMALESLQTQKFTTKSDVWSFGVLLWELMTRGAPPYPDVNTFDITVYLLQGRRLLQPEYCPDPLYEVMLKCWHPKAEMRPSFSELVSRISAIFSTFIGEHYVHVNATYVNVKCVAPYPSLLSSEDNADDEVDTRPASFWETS
The experiment can be described thus: HGFR continuous-coupled spectrophotometric assay. The format is biochemical. As to conditions: Table 3, column 'Ki (μM) or I (%)': cells without % sign; read-out: Ki.
As usually defined, the Ki is a measure of affinity in units of concentration, obtained from inhibition or displacement. Regarding `CC(Oc1cc(-c2ccc(CN3C[C@@H](C)N[C@@H](C)C3)cc2)cnc1N)c1c(Cl)ccc(F)c1Cl` (stereo partly drawn) [Example I-549, 3-[1-(2,6-Dichloro-3-fluoro-phenyl)-ethoxy]-5-[4-(dimethyl-piperazin-1-ylmethyl)-phenyl]-pyridin-2-ylamine], the inhibition constant Ki worked out at 0.095 µM.
For the compound `CC(Oc1cc(-c2ccc(C(=O)N3C[C@@H](C)O[C@@H](C)C3)cc2)cnc1N)c1c(Cl)ccc(F)c1Cl` (stereo partly drawn) [Example I-554, (4-{6-Amino-5-[1-(2,6-dichloro-3-fluoro-phenyl)-ethoxy]-pyridin-3-yl}-phenyl)-((2R,6S)-2,6-dimethyl-morpholin-4-yl)-methanone], the inhibition constant Ki was 0.141 µM.

Staying with this experiment, now noted: at 1 pM; Table 6, library procedure 41; read-out: % Inhibition (percent c-MET inhibition).
The term inhibition denotes the relative decrease from the control value, in per cent. On to `CCC(CC)CN1CCC2(CC1)CC(NC(=O)c1cnc(N)c(OCc3c(Cl)cccc3Cl)c1)CO2` [Example L-330], for which the inhibition at 1 pM is 74%.
Consider `Nc1ncc(C(=O)N2CCC(CO)CC2)cc1OCc1c(Cl)cccc1Cl` [Example L-257], for which the inhibition at 1 pM was determined as 43%.
Still for that read-out and setting: next, `Nc1ncc(C(=O)N2CCN(c3ccc(Br)cn3)CC2)cc1OCc1c(Cl)cccc1Cl` [Example L-267]: 5%; `CCN(CC)C(=O)C1CCCN(C(=O)c2cnc(N)c(OCc3c(Cl)cccc3Cl)c2)C1` [Example L-203]: 33%; `CC(=O)N(C)C1CCN(C(=O)c2cnc(N)c(OCc3c(Cl)cccc3Cl)c2)C1` [Example L-213]: 31%.
The same measure, in the same setting: next, `Nc1ncc(C(=O)N2CCCC(O)C2)cc1OCc1c(Cl)cccc1Cl` [Example L-236]: 33%; `Nc1ncc(C(=O)NC[C@H]2CCCC[C@H]2O)cc1OCc1c(Cl)cccc1Cl` [Example L-228]: 24%.
Take `Nc1ncc(C(=O)N2CCC3(CCNC3=O)CC2)cc1OCc1c(Cl)cccc1Cl` [Example L-284]: the inhibition at 1 pM was 27%.
On the same count and under the same terms, next, `NC(=O)C1CCCN(C(=O)c2cnc(N)c(OCc3c(Cl)cccc3Cl)c2)C1` [Example L-188]: 39%; `Nc1ncc(C(=O)NCCc2c[nH]c3ccc(Cl)cc23)cc1OCc1c(Cl)cccc1Cl` [Example L-212]: 36%; `Nc1ncc(C(=O)N2CCCC(N3CCC(CO)CC3)CC2)cc1OCc1c(Cl)cccc1Cl` [Example L-341]: 20%.
`Nc1ncc(C(=O)N2CCC(C(=O)c3ccccc3)CC2)cc1OCc1c(Cl)cccc1Cl` [Example L-252]: the inhibition at 1 pM is 32%.
As to `Nc1ncc(C(=O)N2CCN(Cc3cccc4ccccc34)CC2)cc1OCc1c(Cl)cccc1Cl` [Example L-281], the inhibition at 1 pM is 26%.
Turning to `Nc1ncc(C(=O)NC[C@H]2CC[C@H](c3nc4ccccc4[nH]3)CC2)cc1OCc1c(Cl)cccc1Cl` [Example L-264], the inhibition at 1 pM was found to be 38%.
Same read-out and setting: next, `CN(C)C(=O)c1cnc(N)c(OCc2c(Cl)cccc2Cl)c1` [Example L-266]: 10%.

Still in this experiment, the particulars now being: at 1 pM; Table 7, library procedure 42; read-out: % Inhibition (percent c-MET inhibition).
For `Nc1ncc(-c2ccc(C(=O)N3CCC(N4CCCC4)CC3)cc2)cc1OCc1cccc(CO)n1`, the inhibition at 1 pM was 15%.
As to `Cc1[nH]cnc1COc1cc(-c2ccc(C(=O)N3CCC(N4CCCC4)CC3)cc2)cnc1N`, the inhibition at 1 pM turned out to be 12%.
On the same count and under the same terms, next, `CCN1CCCC1CNC(=O)c1cccc(COc2cc(-c3ccc(C(=O)N4CCC(N5CCCC5)CC4)cc3)cnc2N)c1` (stereo not drawn): 10%; `Nc1ncc(-c2ccc(C(=O)N3CCC(N4CCCC4)CC3)cc2)cc1OCc1ccc(C(=O)NCCc2ccccn2)cc1`: 11%.
On to `COc1ccc(-c2nc(COc3cc(-c4ccc(C(=O)N5CCC(N6CCCC6)CC5)cc4)cnc3N)no2)cc1`, for which the inhibition at 1 pM was 10%.
The same measure, in the same setting: the value for `CN(C)CCNC(=O)c1cccc(COc2cc(-c3ccc(C(=O)N4CCC(N5CCCC5)CC4)cc3)cnc2N)c1` was 20%; that for `Nc1ncc(-c2ccc(C(=O)N3CCC(N4CCCC4)CC3)cc2)cc1OCc1nc2cc(C(F)(F)F)ccc2s1` was 34%.
For the compound `Nc1ncc(-c2ccc(C(=O)N3CCC(N4CCCC4)CC3)cn2)cc1OCc1ccc(-c2csnn2)cc1`, the inhibition at 1 pM was 41%.
As for `CCN(CC)c1ccc(NC(=O)c2ccc(COc3cc(-c4ccc(C(=O)N5CCC(N6CCCC6)CC5)cc4)cnc3N)cc2)cc1`, the inhibition at 1 pM is 47%.
With `Nc1ncc(-c2ccc(C(=O)N3CCC(N4CCCC4)CC3)cc2)cc1OCc1cccc(F)c1F`, the inhibition at 1 pM amounted to 24%.
With `Nc1ncc(-c2ccc(C(=O)N3CCC(N4CCCC4)CC3)cc2)cc1OCc1cscn1`, the inhibition at 1 pM turned out to be 12%.
The same measure, in the same setting: the value for `COc1cccc(COc2cc(-c3ccc(C(=O)N4CCC(N5CCCC5)CC4)cc3)cnc2N)c1` was 15%; that for `Nc1ncc(-c2ccc(C(=O)N3CCC(N4CCCC4)CC3)cc2)cc1OCc1cc(F)c(F)cc1F` was 12%.
Take `N#Cc1ccccc1-c1ccc(COc2cc(-c3ccc(C(=O)N4CCC(N5CCCC5)CC4)cc3)cnc2N)cc1`: the inhibition at 1 pM came out at 77%.
Turning to `Nc1ncc(-c2ccc(C(=O)N3CCC(N4CCCC4)CC3)cc2)cc1OCc1cc(F)cc(C(F)(F)F)c1`, the inhibition at 1 pM is 12%.
For `CC(C)c1ccc(COc2cc(-c3ccc(C(=O)N4CCC(N5CCCC5)CC4)cc3)cnc2N)cc1`, the inhibition at 1 pM is 32%.
For `Cc1cccnc1COc1cc(-c2ccc(C(=O)N3CCC(N4CCCC4)CC3)cc2)cnc1N`, the inhibition at 1 pM was 16%.
On to `Nc1ncc(-c2ccc(C(=O)N3CCC(N4CCCC4)CC3)cc2)cc1OCc1cccnc1`, for which the inhibition at 1 pM was 17%.
As to `CCc1ccc(COc2cc(-c3ccc(C(=O)N4CCC(N5CCCC5)CC4)cc3)cnc2N)nc1`, the inhibition at 1 pM came to 15%.
With `Nc1ncc(-c2ccc(C(=O)N3CCC(N4CCCC4)CC3)cc2)cc1OCc1cccc(C(=O)NC2CCN(Cc3ccccc3)C2)c1` (stereo not drawn), the inhibition at 1 pM is 13%.
`Nc1ncc(-c2ccc(C(=O)N3CCC(N4CCCC4)CC3)cc2)cc1OCc1ccc(C(=O)NCCN2CCOCC2)cc1`: the inhibition at 1 pM came to 11%.
Consider `Nc1ncc(-c2ccc(C(=O)N3CCC(N4CCCC4)CC3)cc2)cc1OCc1nccn1Cc1ccccc1`, for which the inhibition at 1 pM amounted to 8%.
On the same count and under the same terms, the value for `COc1cccc(COc2cc(-c3ccc(C(=O)N4CCC(N5CCCC5)CC4)cc3)cnc2N)c1OC` was 23%; that for `Nc1ncc(-c2ccc(C(=O)N3CCC(N4CCCC4)CC3)cc2)cc1OCc1nc(-c2ccc(C(=O)N3CCCC3)cc2)no1` was 11%.
As for `CC(=O)Nc1nc(COc2cc(-c3ccc(C(=O)N4CCC(N5CCCC5)CC4)cc3)cnc2N)cs1`, the inhibition at 1 pM worked out at 9%.
Take `Nc1ncc(-c2ccc(C(=O)N3CCC(N4CCCC4)CC3)cc2)cc1OCc1cc(F)c(F)c(F)c1`: the inhibition at 1 pM amounted to 19%.

Staying with this experiment, now noted: at 50 nM; Table 5, library procedure 40; read-out: % inhibition (percent c-MET inhibition).
For the compound `CC(Oc1cc(-c2ccc(C(=O)NCCC3CCCN3C)cc2)cnc1N)c1c(Cl)ccc(F)c1Cl` [Example L-1], the inhibition at 0.05 µM came out at 58%.
On the same count and under the same terms, the value for `CC(Oc1cc(-c2ccc(C(=O)NCC3(O)CCCCC3)cc2)cnc1N)c1c(Cl)ccc(F)c1Cl` [Example L-59] was 81%; that for `CC(Oc1cc(-c2ccc(C(=O)N3CCC(CO)C3)cc2)cnc1N)c1c(Cl)ccc(F)c1Cl` [Example L-172] was 79%; that for `CC(Oc1cc(-c2ccc(C(=O)Nc3ccc(-n4ccnc4)cc3)cc2)cnc1N)c1c(Cl)ccc(F)c1Cl` [Example L-158] was 63%.
Same read-out and setting: next, `CC(Oc1cc(-c2ccc(C(=O)NCCc3nc(-c4ccncc4)c[nH]3)cc2)cnc1N)c1c(Cl)ccc(F)c1Cl` [Example L-166]: 67%; `CC(Oc1cc(-c2ccc(C(=O)NCC3(N(C)C)CCOCC3)cc2)cnc1N)c1c(Cl)ccc(F)c1Cl` [Example L-155]: 66%.
Regarding `CC(Oc1cc(-c2ccc(C(=O)NCCc3cccc(C(F)(F)F)c3)cc2)cnc1N)c1c(Cl)ccc(F)c1Cl` [Example L-94], the inhibition at 0.05 µM was 51%.
Consider `CC(Oc1cc(-c2ccc(C(=O)N[C@H]3CCN(Cc4ccccc4)C3)cc2)cnc1N)c1c(Cl)ccc(F)c1Cl` (stereo partly drawn) [Example L-14], for which the inhibition at 0.05 µM was 72%.
For `CC(Oc1cc(-c2ccc(C(=O)NCc3ccc(CN(C)C)cc3)cc2)cnc1N)c1c(Cl)ccc(F)c1Cl` [Example L-121], the inhibition at 0.05 µM was 75%.
`CC(Oc1cc(-c2ccc(C(=O)NC3CCOCC3)cc2)cnc1N)c1c(Cl)ccc(F)c1Cl` [Example L-156]: the inhibition at 0.05 µM was determined as 73%.

The experiment is the same for the next values; noted with them: at 1 μM; Table 8, library procedure 43; read-out: % Inhibition (percent c-MET inhibition).
`CC1CN(C(=O)c2ccc(-c3cnc(N)c(OCc4cc(Cl)cc(Cl)c4)c3)cc2)CC(C)N1` (stereo not drawn): the inhibition at 1 µM was found to be 26%.
The same measure, in the same setting: next, `CC1CN(C(=O)c2ccc(-c3cnc(N)c(OCc4ccc(C(=O)NC5CCN(Cc6ccccc6)C5)cc4)c3)cc2)CC(C)N1` (stereo not drawn): 19%.
For `CC1CN(C(=O)c2ccc(-c3cnc(N)c(OCc4cc(F)ccc4Br)c3)cc2)CC(C)N1` (stereo not drawn), the inhibition at 1 µM was found to be 21%.
As to `CC1CN(C(=O)c2ccc(-c3cnc(N)c(OCc4cccc(F)c4F)c3)cc2)CC(C)N1` (stereo not drawn), the inhibition at 1 µM was 19%.
On to `CC1CN(C(=O)c2ccc(-c3cnc(N)c(OCc4ccc(S(N)(=O)=O)cc4)c3)cc2)CC(C)N1` (stereo not drawn), for which the inhibition at 1 µM is 16%.
On to `CC1CN(C(=O)c2ccc(-c3cnc(N)c(OCc4cccc5cccnc45)c3)cc2)CC(C)N1` (stereo not drawn), for which the inhibition at 1 µM was 17%.
Consider `CC1CN(C(=O)c2ccc(-c3cnc(N)c(OCc4cccc(Cl)c4F)c3)cc2)CC(C)N1` (stereo not drawn), for which the inhibition at 1 µM was found to be 28%.
As to `CC1CN(C(=O)c2ccc(-c3cnc(N)c(OCc4c(F)ccc(F)c4F)c3)cc2)CC(C)N1` (stereo not drawn), the inhibition at 1 µM was found to be 41%.
Take `CC1CN(C(=O)c2ccc(-c3cnc(N)c(OCc4cc(F)ccc4F)c3)cc2)CC(C)N1` (stereo not drawn): the inhibition at 1 µM worked out at 25%.

Still in this experiment, the particulars now being: cells prefixed Ki; read-out: Met Ki.
As to `CC(Oc1cc(C#CC(C)(C)NC(=O)N2CCN(C)CC2)cnc1N)c1c(Cl)ccc(F)c1Cl` (stereo not drawn) [Example I-432, 4-Methyl-piperazine-1-carboxylic acid (3-{6-amino-5-[1-(2,6-dichloro-3-fluoro-phenyl)-ethoxy]-pyridin-3-yl}-1,1-dimethyl-prop-2-ynyl)-amide], the Ki worked out at 0.61 µM.
